A short description of one data set: physchem. As to conditions: thermodynamic from solid.
The conditions of data set [1]: pH 7.48.
Method: (§1) A 0.1 N solution of NaOH was used to adjust the pH to the indicated values. These solutions were shaken for about 10 minutes then held at room temperature overnight in order to allow maximum dissolution of drugs in the buffer. […] HPLC was performed using a C18 column having a mobile phase of buffer (5 mM NaH2PO4 and 5 mM octane sulfonic acid, pH 3) in 30% acetonitrile with a flow rate of 1.5 ml/minute. The detection wavelength was 210 nm.

Counter-ions that a name gives are not always drawn.

Method for physchem: as §1

As to `COc1ccc(Cc2nccc3cc(OC)c(OC)cc23)cc1OC` [Papaverine, papaverine hydrochloride], the solubility – broadly, the dissolved amount per volume that the medium holds – in the data set “physchem” (pH 3.91, aqueous buffer, In Solution (solubility in mixture)) was 36800 µg/mL; in “physchem” (pH 3.91, aqueous buffer, solubility), roughly 36800 µg/mL; in the data set “physchem” (pH 4.35, aqueous buffer, In Solution (solubility in mixture)), 7750 µg/mL; in the data set “physchem” (pH 5.04, aqueous buffer, In Solution (solubility in mixture)), 700 µg/mL; in “physchem” (pH 7.48, aqueous buffer, In Solution (solubility in mixture)), roughly 200 µg/mL; in “physchem” (pH 7.65, aqueous buffer, In Solution (solubility in mixture)), 200 µg/mL. For the same molecule, the “In Solution (solubility in mixture)” value in data set [1] was determined as 170 µg/mL.

Values taken from patent publication US7776899B2, “Methods for treatment of erectile dysfunction” (Repros Therapeutics Inc., priority 1998, dated 2010).
